Bounds are passed on as bounds.

The first assay addresses T1, recombinant human IDE42-1019 (Homo sapiens, UniProt P14735).
T1 construct: recombinant human IDE42-1019 (R&D Systems); purchased R&D Systems
T1 sequence (P14735 42-1019): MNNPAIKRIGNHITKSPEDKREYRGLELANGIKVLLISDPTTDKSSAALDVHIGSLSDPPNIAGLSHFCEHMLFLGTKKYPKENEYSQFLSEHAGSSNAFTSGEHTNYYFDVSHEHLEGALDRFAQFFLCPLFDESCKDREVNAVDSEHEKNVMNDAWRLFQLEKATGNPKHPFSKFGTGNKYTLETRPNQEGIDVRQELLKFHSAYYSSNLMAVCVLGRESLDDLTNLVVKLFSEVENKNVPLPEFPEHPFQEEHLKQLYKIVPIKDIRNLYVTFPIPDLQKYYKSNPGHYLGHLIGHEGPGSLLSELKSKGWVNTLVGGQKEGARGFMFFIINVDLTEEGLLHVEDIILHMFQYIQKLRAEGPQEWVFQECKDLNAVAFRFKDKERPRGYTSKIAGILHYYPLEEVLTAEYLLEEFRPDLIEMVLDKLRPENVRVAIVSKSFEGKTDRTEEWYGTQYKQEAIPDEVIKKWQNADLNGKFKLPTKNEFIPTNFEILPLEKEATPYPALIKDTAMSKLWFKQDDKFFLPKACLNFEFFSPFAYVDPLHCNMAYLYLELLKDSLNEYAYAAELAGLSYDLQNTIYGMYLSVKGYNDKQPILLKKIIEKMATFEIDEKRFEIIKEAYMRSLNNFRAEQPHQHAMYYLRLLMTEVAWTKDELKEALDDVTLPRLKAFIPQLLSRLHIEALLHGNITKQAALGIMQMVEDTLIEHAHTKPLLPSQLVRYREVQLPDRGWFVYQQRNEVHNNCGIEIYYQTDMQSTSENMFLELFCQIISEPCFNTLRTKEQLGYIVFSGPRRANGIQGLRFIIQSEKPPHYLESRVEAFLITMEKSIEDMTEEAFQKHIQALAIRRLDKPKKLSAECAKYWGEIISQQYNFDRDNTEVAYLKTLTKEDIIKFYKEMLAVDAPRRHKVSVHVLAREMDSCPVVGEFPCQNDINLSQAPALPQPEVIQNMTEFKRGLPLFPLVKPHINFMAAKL
Description: Protease assay with fluorogenic peptide substrate Mca-[…](Dnp)-OH. The assay is classed as biochemical. Conditions: fluorogenic peptide Mca-RPPGFSAFK(Dnp)-OH; apparent IC50 for compounds with submaximal inhibition; read-out: IC50 (μM) Proteolysis. The method, then:
The proteases IDE42-1019, recombinant human IDE42-1019 (R&D Systems), neprilysin (R&D), and angiotensin-converting enzyme (R&D) were assayed using the fluorophore/quencher-tagged peptide substrate Mca-[…](Dnp)-OH (SEQ ID NO: 24) (R&D) according to the manufacturer's instructions and using the recommended buffers (fluorophore Mca=(7-methoxycourmarin-4-yl)acetyl and quencher Dnp=2,4-dinitrophenyl). For IDE the recommended buffer is 50 mM Tris pH 7.5, 1 M NaCl. The enzyme mixtures (48 μL) were transferred to a 96-well plate and combined with 2 μL of inhibitor in DMSO solutions, in 3-fold dilution series. The mixtures were allowed to equilibrate for 10 minutes and the enzymatic reaction was started by addition of substrate peptide in assay buffer (50 μL), mixed, and monitored on a fluorescence plate reader (excitation at 320 nm, emission at 405 nm). Similarly, thimet oligopeptidase (R&D) and neurolysin (R&D) were assayed using substrate Mca-PLGPK(Dnp)-OH (SEQ ID NO: 25) (R&D) according to the manufacturer's instructions and using the recommended buffers. Matrix metalloproteinase-1 (R&D) was activated and assayed according to the manufacturer's instructions with substrate Mca-KPLGL-Dpa-AR-NH2 (SEQ ID NO: 20) (R&D) (quencher DPA=N-3-(2,4,dinitrophenyl)-L-2,3-diaminopropionyl). All assay data points were obtained in duplicate.
In the case of `Cc1cccc(-c2ccc(C3CCN(S(=O)(=O)c4ccc5[nH]c(=O)[nH]c5c4)CC3)cc2)c1C` [A15], the concentration for half-maximal inhibition (IC50) was determined as 4 µM.

Turning to `Cc1cccc(-c2ccc(C3CCN(S(=O)(=O)c4ccc5c(ccn5C)c4)CC3)cc2)c1C` [A14], the IC50 amounted to 10 µM.

As for `COc1cccc(-c2ccc([C@@H]3[C@@H](CO)N4CCCCN(S(=O)(=O)c5ccccc5C)C[C@@H]34)cc2)c1` [K3], the 50% inhibitory concentration (IC50) stood at 0.4 µM.

With `Cc1cc(F)ccc1-c1ccc([C@@H]2[C@@H](CO)N3CCCCN(S(=O)(=O)c4ccccc4C)C[C@@H]23)cc1` [JP-39], the half-maximal inhibitory concentration (IC50) was 0.8 µM.

For the compound `Cc1c(-c2ccc([C@@H]3[C@@H](CO)N4CCCCN(S(=O)(=O)c5ccccc5C(F)(F)F)C[C@@H]34)cc2)cccc1C(F)(F)F` [K19], the half-inhibitory concentration (IC50) was found to be 0.1 µM.

For the compound `O=C(c1ccncc1)N1CC2NC(C1)C2c1ccc(/C=C/c2ccccc2)cc1` (stereo not drawn) [C10], the concentration for half-maximal inhibition (IC50) was found to be 10 µM.

Consider `Cc1ccccc1S(=O)(=O)N1CCCCN2[C@H](CO)[C@@H](c3ccc(-c4cnc(F)c(C)c4)cc3)[C@@H]2C1` [K26], for which the IC50 was 4 µM.

Take `Cc1cccc(-c2ccc([C@@H]3[C@@H](CO)N4CCCCN(S(=O)(=O)c5nccn5C)C[C@@H]34)cc2)c1C` [JP-S23]: the half-inhibitory concentration (IC50) came to 0.0006 µM.

`Cc1cccc(-c2ccc([C@@H]3[C@@H](CN(C)C)N4CCCCN(S(=O)(=O)c5ccccc5C(F)(F)F)C[C@@H]34)cc2)c1C` [JP-17-DMA]: the IC50 turned out to be 0.1 µM.

As to `Cc1ccccc1S(=O)(=O)N1CC=C(c2ccc(-c3cccc(C)c3C)cc2)CC1` [J7], the half-inhibitory concentration (IC50) was > 100 µM.

For `COc1ccccc1-c1ccc([C@H]2C3CN(S(=O)(=O)c4ccccc4C)CCCCN3[C@@H]2CO)cc1` (stereo partly drawn) [K14], the half-inhibitory concentration (IC50) turned out to be 0.3 µM.

On to `Cc1ccccc1S(=O)(=O)N1CCCCN2[C@H](CO)[C@@H](c3ccc(-c4cccc(F)c4C)cc3)[C@@H]2C1` [K20], for which the IC50 worked out at 0.1 µM.

Turning to `COc1ccc(C)cc1-c1ccc([C@@H]2[C@@H](CO)N3CCCCN(S(=O)(=O)c4ccccc4C)C[C@@H]23)cc1` [K16], the IC50 worked out at 0.8 µM.

Consider `Cc1cccc(-c2ccc([C@@H]3[C@@H](CO)N4CCCCN(S(=O)(=O)c5ccccc5C)C[C@@H]34)cc2)c1` [BRD-297], for which the concentration for half-maximal inhibition (IC50) was found to be 0.25 µM.

Turning to `CCn1ncc(S(=O)(=O)N2C/C=C\CN3C(C2)[C@H](c2ccc(-c4cccc(C)c4C)cc2)[C@H]3CO)c1C` (stereo partly drawn) [JP-S19], the IC50 is 0.09 µM.

For the compound `CCC(=O)N1[C@H](CO)[C@H](c2ccc(-c3ccccc3OC)cc2)[C@H]1CNC(C)=O` [D4], the half-maximal inhibitory concentration (IC50) is > 20 µM.

On to `Cc1cc(O)ccc1-c1ccc([C@@H]2[C@@H](CO)N3CCCCN(S(=O)(=O)c4ccccc4C)C[C@@H]23)cc1` [JP-31], for which the IC50 was found to be 3 µM.

As to `Cc1cccc(-c2ccc(C3CCN(C(=O)c4ccc5occc5c4)CC3)cc2)c1C` [A26], the IC50 was 6 µM.

Regarding `Cc1ccccc1S(=O)(=O)N1CCC(c2ccc(-c3cccc(C)c3C)cc2)CC1` [J6], the 50% inhibitory concentration (IC50) worked out at 0.3 µM.

Turning to `Cc1ccccc1-c1ccc([C@@H]2[C@H](CO)N3C(=O)CN(C(=O)NC4CCCC4)C[C@@H]23)cc1` [compound 1576], the IC50 stood at 2.5 µM.

For `Cc1cccc(-c2ccc([C@H]3C4CN(S(=O)(=O)c5ccccc5C)CCCCN4[C@@H]3CN)cc2)c1` (stereo partly drawn) [K29], the concentration for half-maximal inhibition (IC50) came out at 0.25 µM.

For the compound `Cc1c(F)ccc(-c2ccc([C@@H]3[C@@H](CO)N4CCCCN(S(=O)(=O)c5cnc(C)n5C)C[C@@H]34)cc2)c1C` [JP-42], the IC50 came out at 0.008 µM.

`Cc1cccc(-c2ccc(C3CCN(Cc4ccccc4Oc4ccccc4)CC3)cc2)c1C` [A33]: the half-inhibitory concentration (IC50) stood at 7 µM.

Regarding `Cc1ccc(-c2ccc([C@@H]3[C@@H](CO)N4CCCCN(S(=O)(=O)c5ccccc5C)C[C@@H]34)cc2)cc1C` [B3], the IC50 came to 0.2 µM.

Take `O=C(NC1CCCC1)N1CCCCN2[C@@H](CO)[C@H](c3ccc(/C=C/c4ccccc4)cc3)[C@@H]2C1` [compound 900]: the IC50 was > 7.5 µM.

Take `Cc1cccc(-c2ccc(C3CCN(S(=O)(=O)CCc4ccncc4)CC3)cc2)c1C` [A17]: the half-maximal inhibitory concentration (IC50) turned out to be 5 µM.

As to `Cc1cccc(-c2ccc(C3CCN(S(=O)(=O)c4cc5ccccc5o4)CC3)cc2)c1C` [A03], the IC50 is > 100 µM.

As to `Cc1ccccc1S(=O)(=O)N1CCCCN2[C@H](CO)[C@@H](c3ccc(-c4cccc(C)c4C)cc3)[C@@H]2C1` [K9], the half-maximal inhibitory concentration (IC50) was 0.002 µM.

In the case of `Cc1cccc(-c2ccc(C3CCN(C(=O)c4ccc5ccccc5n4)CC3)cc2)c1C` [A28], the IC50 was found to be 1 µM.

Turning to `Cc1cccc(-c2ccc(C3CCN(Cc4ccc(OCc5ccccc5)cc4)CC3)cc2)c1C` [A34], the IC50 is > 50 µM.

Consider `Cc1ccccc1S(=O)(=O)NCCc1ccc(-c2cccc(C)c2C)cc1` [J3], for which the half-inhibitory concentration (IC50) amounted to 2.5 µM.

Turning to `COc1ccccc1-c1ccc([C@H]2[C@@H](CO)N[C@@H]2CNC(=O)C2CCCC2)cc1` [D5], the IC50 stood at 7.5 µM.

With `COC[C@@H]1[C@@H](c2ccc(-c3cccc(C)c3C)cc2)[C@@H]2CN(S(=O)(=O)c3ccc[n+](C)c3C)CCCCN12` [JP-S21-diMe], the half-inhibitory concentration (IC50) was > 0.2 µM.

As to `Cc1ccccc1S(=O)(=O)N1CCCCN2[C@H](CO)[C@@H](c3ccc(-c4cccc(C(F)(F)F)c4)cc3)[C@@H]2C1` [B5], the IC50 amounted to 7.5 µM.

For `Cc1cccc(-c2ccc(C3CCN(S(=O)(=O)c4ccc5c(c4)OCO5)CC3)cc2)c1C` [A02], the IC50 turned out to be 12 µM.

As to `COC[C@@H]1[C@@H](c2ccc(-c3ccc(F)c(C)c3C)cc2)[C@@H]2CN(S(=O)(=O)c3nccn3C)CCCCN12` [JP-43-OMe], the IC50 is 0.15 µM.

As for `CCCNC(=O)N1CC(=O)N2[C@@H](CO)[C@H](c3ccc(-c4cccc(C)c4)cc3)[C@@H]2C1` [compound 231], the half-inhibitory concentration (IC50) was determined as 2.5 µM.

The assay is the same for the next values; noted with them: fluorogenic peptide Mca-RPPGFSAFK(Dnp)-OH; plateau at high inhibitor concentration; read-out: Imax (%) Proteolysis (inhibition maximum).
As to `Cc1ccccc1S(=O)(=O)N1CCCCN2C(C1)[C@H](c1ccc(-c3cccc(F)c3F)cc1)[C@H]2CO` (stereo partly drawn) [K15], the Emax was 90%.

On to `Cc1ccccc1S(=O)(=O)N1CCCCN2[C@H](CO)[C@@H](c3ccc(-c4cccc(F)c4F)cc3)[C@@H]2C1` [B14], for which the Emax stood at 90%.

Turning to `Cc1ccccc1S(=O)(=O)N1CCCCN2[C@H](CO)[C@@H](c3ccc(-c4cccc(F)c4)cc3)[C@@H]2C1` [B10], the Emax was determined as 65%.

Consider `O=C(c1ccncc1)N1CC2NC(C1)C2c1ccc(/C=C/c2ccccc2)cc1` (stereo not drawn) [C10], for which the Emax came to 100%.

`Cc1ccccc1S(=O)(=O)N1CCCCN2C(C1)[C@H](c1ccc(-c3ccc4c(c3)OCO4)cc1)[C@H]2CO` (stereo partly drawn) [K5]: the Emax turned out to be 100%.

Regarding `Cc1ccc(-c2ccc([C@H]3C4CN(S(=O)(=O)c5ccccc5C)CCCCN4[C@@H]3CO)cc2)cc1C` (stereo partly drawn) [K4], the Emax is 72%.

Regarding `COc1ccccc1-c1ccc([C@H]2C3CN(S(=O)(=O)c4ccccc4C)CCCCN3[C@@H]2CO)cc1` (stereo partly drawn) [K14], the Emax came to 65%.

`Cc1ccccc1-c1ccc([C@H]2C3CN(S(=O)(=O)c4ccccc4C)CCCCN3[C@@H]2CO)cc1` (stereo partly drawn) [K12]: the Emax turned out to be 65%.

As to `Cc1ccccc1-c1ccc([C@@H]2[C@H](CO)N3C(=O)CN(C(=O)NC4CCCC4)C[C@@H]23)cc1` [compound 1576], the Emax was found to be 60%.

`Cc1ccc(-c2ccc([C@@H]3[C@@H](CO)N4CCCCN(S(=O)(=O)c5ccccc5C)C[C@@H]34)cc2)cc1C` [B3]: the Emax was 72%.

In the case of `Cc1ccccc1S(=O)(=O)N1CCCCN2C(C1)[C@H](c1ccc(-c3cccc(F)c3)cc1)[C@H]2CO` (stereo partly drawn) [K11], the Emax was 65%.

On to `Cc1ccccc1-c1ccc([C@@H]2[C@H](CO)N3CCCCN(C(=O)Cc4ccccn4)C[C@@H]23)cc1` [compound 469], for which the Emax stood at 80%.

In the case of `COc1ccccc1-c1ccc([C@H]2[C@@H](CO)N[C@@H]2CNC(=O)C2CCCC2)cc1` [D5], the Emax turned out to be 60%.

With `CCCNC(=O)N1CC(=O)N2[C@@H](CO)[C@H](c3ccc(-c4cccc(C)c4)cc3)[C@@H]2C1` [compound 231], the Emax was 60%.

A word on the IC50: it is the point on the concentration scale where inhibition reaches its midpoint.

Source of the values: patent US11040976B2, “Substrate selective inhibitors of insulin-degrading enzyme (IDE) and uses thereof” (President and Fellows of Harvard College, priority 2015, dated 2021).
